Publication PMC4840125, “[^18F]tetrafluoroborate as a PET tracer for the sodium/iodide symporter: the importance of specific activity” (EJNMMI Research, 2016)

Target: T1, human sodium/iodide symporter (hNIS) (Homo sapiens, UniProt Q92911)
T1 construct: gene SLC5A5; hNIS stably transfected in HCT116 human colon carcinoma cells (HCT116-hNIS-C19)
T1 sequence (Q92911 1-643): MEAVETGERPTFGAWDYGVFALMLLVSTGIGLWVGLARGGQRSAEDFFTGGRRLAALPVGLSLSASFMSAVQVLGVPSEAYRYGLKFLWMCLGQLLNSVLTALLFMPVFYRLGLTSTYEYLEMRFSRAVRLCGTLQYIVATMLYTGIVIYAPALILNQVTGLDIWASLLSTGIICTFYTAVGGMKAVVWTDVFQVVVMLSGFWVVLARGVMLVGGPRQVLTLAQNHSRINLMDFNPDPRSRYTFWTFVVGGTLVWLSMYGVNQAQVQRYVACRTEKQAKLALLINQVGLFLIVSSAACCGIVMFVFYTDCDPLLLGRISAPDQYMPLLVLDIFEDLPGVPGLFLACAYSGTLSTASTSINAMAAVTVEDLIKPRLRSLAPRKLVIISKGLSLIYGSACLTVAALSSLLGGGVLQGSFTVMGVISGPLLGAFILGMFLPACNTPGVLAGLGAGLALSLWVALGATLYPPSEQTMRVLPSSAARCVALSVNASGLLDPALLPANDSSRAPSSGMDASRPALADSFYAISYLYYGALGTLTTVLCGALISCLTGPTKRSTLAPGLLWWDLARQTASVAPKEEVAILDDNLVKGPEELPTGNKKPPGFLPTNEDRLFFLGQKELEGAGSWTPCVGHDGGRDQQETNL
Assay: inhibition of […]BF4- uptake in hNIS-transfected cells, gamma counting
Type: cell-based

For F[B-](F)(F)F [[19F]BF4-], the IC50 was 4.7 µM.
